Measured values taken from ChEMBL document CHEMBL3997831, “Synthesis and evaluation of prodrugs of corticotropin-releasing factor-1 (CRF1) receptor antagonist BMS-665053 leading to improved oral bioavailability” (Bioorg Med Chem Lett, 2017).
≈ marks a conversion by molar mass, not a printed value.

Tests used:
[1] = (§1) AUC (0 to 24 hrs) in Sprague-Dawley rat at 10 mg/kg, po by LC-MS/MS analysis; type: ADME, organism-based; parameters: dose 10 mg/kg, time < 24 hr, route oral; conditions: Sprague-Dawley, in vivo
[2] = (§2) Cmax in Sprague-Dawley rat at 10 mg/kg, po by LC-MS/MS analysis; type: ADME, organism-based; parameters: dose 10 mg/kg, route oral; conditions: Sprague-Dawley, in vivo
[3] = Thermodynamic equilibrium aqueous solubility in pH 6.5 solution at 1 mg/ml after 15 to 24 hrs by UV-HPLC method; type: physicochemical; conditions: for solubility thermodynamic: aqueous pH 6.5 solution, read-out: Therm_solubility
[4] = Oral bioavailability in Sprague-Dawley rat at 10 mg/kg by LC-MS/MS analysis; type: ADME, organism-based; conditions: in vivo
[5] = Thermodynamic equilibrium aqueous solubility in pH 1 solution at 1 mg/ml after 15 to 24 hrs by UV-HPLC method; type: physicochemical; conditions: aqueous pH 1 solution, read-out: Therm_solubility
[6] = target: T1, Alkaline phosphatase, tissue-nonspecific isozyme (Homo sapiens, UniProt P05186); test: Drug metabolism treated with 2,2-Dimethyl-3-(phosphonooxy)propyl (S)-(6-chloro-4-(1-cyclopropylethyl)-3-oxo-3,4-dihydropyrazin-2-yl)(2,6-dichloro-4-(difluoromethoxy)phenyl)carbamate, disodium salt assessed as alkaline phosphatase (unknown origin)-mediated compound conversion after 120 mins by LC-MS analysis; type: ADME; conditions: 2 h
T1 sequence (P05186 whole entry): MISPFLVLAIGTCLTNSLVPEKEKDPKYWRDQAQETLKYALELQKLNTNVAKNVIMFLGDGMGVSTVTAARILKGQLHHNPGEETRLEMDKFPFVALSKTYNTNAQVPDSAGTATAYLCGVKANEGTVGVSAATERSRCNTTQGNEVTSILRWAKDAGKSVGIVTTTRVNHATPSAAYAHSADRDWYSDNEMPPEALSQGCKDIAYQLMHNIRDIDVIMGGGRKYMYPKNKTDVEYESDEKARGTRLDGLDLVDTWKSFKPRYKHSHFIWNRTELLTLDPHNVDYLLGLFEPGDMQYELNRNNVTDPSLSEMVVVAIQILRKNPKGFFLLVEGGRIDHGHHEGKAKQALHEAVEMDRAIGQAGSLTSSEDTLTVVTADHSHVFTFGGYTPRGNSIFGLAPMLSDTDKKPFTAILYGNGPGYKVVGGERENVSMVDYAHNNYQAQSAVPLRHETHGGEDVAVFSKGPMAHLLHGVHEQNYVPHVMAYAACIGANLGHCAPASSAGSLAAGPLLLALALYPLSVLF

[7] = target: T1, Alkaline phosphatase, tissue-nonspecific isozyme; test: Drug metabolism treated with 3-(Phosphonooxy)propyl (S)-(6-chloro-4-(1-cyclopropylethyl)-3-oxo-3,4-dihydropyrazin-2-yl)(2,6-dichloro-4-(difluoromethoxy)phenyl)carbamate, disodium salt assessed as alkaline phosphatase (unknown origin)-mediated compound conversion after 120 mins by LC-MS analysis; type: ADME; conditions: 2 h
Plasma = test: Prodrug activation in Sprague-Dawley rat assessed as BMS-665053 level in plasma at 10 mg/kg, po by LC-MS/MS analysis; type: organism-based; conditions: in vivo
[8] = Prodrug activation in pH 7 buffer assessed as BMS-665053 formation after 10 mins by HPLC method
[9] = Stability in pH 1 buffer by HPLC method; type: physicochemical
Rattus norvegicus [10] = test: as §1; type: ADME, organism-based; parameters: dose 10 mg/kg, time < 24 hr, route oral; conditions: in vivo, 24 h, BLD = below limit of detection
Rattus norvegicus [11] = test: as §2; type: ADME, organism-based; parameters: dose 10 mg/kg, route oral; conditions: in vivo, BLD = below limit of detection
[12] = Stability in pH 7 buffer after 8 hrs by HPLC method; type: physicochemical; conditions: pH 7, 8 h
[13] = Stability in pH 1 buffer after 8 hrs by HPLC method; type: physicochemical; conditions: pH 1, 8 h

| Compound | AUC(0-t) at 24 h [1] | Cmax [2] | solubility thermodynamic [3] | bioavailability [4] | solubility thermodynamic [5] | Drug metabolism (Plasma) | also measured |
| --- | --- | --- | --- | --- | --- | --- | --- |
| C[C@@H](C1CC1)n1cc(Cl)nc(N(C(=O)OCCCO)c2c(Cl)cc(OC(F)F)cc2Cl)c1=O |  |  |  |  |  |  | Drug metabolism [6]: Metabolite_Detected; Drug metabolism [7]: Metabolite_Detected |
| C[C@@H](C1CC1)n1cc(Cl)nc(N(COP(=O)([O-])[O-])c2c(Cl)cc(OC(F)F)cc2Cl)c1=O.[Na+].[Na+] | 5.99 µM·h | 2150 nM |  | 25% |  |  |  |
| C[C@@H](C1CC1)n1cc(Cl)nc(N(C(=O)OCC(C)(C)COP(=O)([O-])[O-])c2c(Cl)cc(OC(F)F)cc2Cl)c1=O.[Na+].[Na+] |  |  | > 1500 µg/mL |  | 50 µg/mL | Metabolite_Notdetected | AUC (Rattus norvegicus [10]): Bld; Cmax (Rattus norvegicus [11]): Bld |
| C[C@@H](C1CC1)n1cc(Cl)nc(N(C(=O)OCOC(=O)CN(C)C)c2c(Cl)cc(OC(F)F)cc2Cl)c1=O |  |  | 530 µg/mL (≈ 908 µM) |  | 1720 µg/mL (≈ 2950 µM) | Metabolite_Notdetected | AUC (Rattus norvegicus [10]): Bld; Cmax (Rattus norvegicus [11]): Bld |
| C[C@@H](C1CC1)n1cc(Cl)nc(N(C(=O)OCCCOP(=O)([O-])[O-])c2c(Cl)cc(OC(F)F)cc2Cl)c1=O.[Na+].[Na+] | 4.23 µM·h | 295 nM | 1500 µg/mL | 18% | 4 µg/mL |  | Stability [12]: Stable; Stability [13]: Stable |

Continued, in another order:

| AUC(0-t) at 24 h [1] | Cmax [2] | solubility thermodynamic [3] | bioavailability [4] | solubility thermodynamic [5] | Drug metabolism (Plasma) | Compound | also measured |
| --- | --- | --- | --- | --- | --- | --- | --- |
| 7.37 µM·h | 740 nM | 10 µg/mL | 32% | 1820 µg/mL |  | CC(C)[C@H](N)C(=O)OCOC(=O)N(c1c(Cl)cc(OC(F)F)cc1Cl)c1nc(Cl)cn([C@@H](C)C2CC2)c1=O.Cl |  |
| 6.32 µM·h | 490 nM | 30 µg/mL | 27% | 1350 µg/mL |  | C[C@@H](C1CC1)n1cc(Cl)nc(N(C(=O)OCOC(=O)CCN)c2c(Cl)cc(OC(F)F)cc2Cl)c1=O.Cl |  |
| 8.25 µM·h | 730 nM | 5 µg/mL | 36% | 370 µg/mL |  | C[C@H](N)C(=O)OCOC(=O)N(c1c(Cl)cc(OC(F)F)cc1Cl)c1nc(Cl)cn([C@@H](C)C2CC2)c1=O.Cl |  |
| 3.99 µM·h | 460 nM |  | 17% | 338 µg/mL (≈ 584 µM) | 23 %ID | C[C@@H](C1CC1)n1cc(Cl)nc(N(C(=O)OCOP(=O)(O)O)c2c(Cl)cc(OC(F)F)cc2Cl)c1=O | Therm_solubility ([3]; buffer): Nd(Unstable); Drug metabolism [8]: Metabolite detected; Stability [9]: Stable |
| 1.26 µM·h |  | < 1 µg/mL |  | 7 µg/mL (≈ 16.5 µM) |  | C[C@@H](C1CC1)n1cc(Cl)nc(Nc2c(Cl)cc(OC(F)F)cc2Cl)c1=O |  |
